Data: the NIST ThermoML archive (doi:10.1016/j.jct.2012.03.003)
Numbers after ± are expanded uncertainties.

Assay: xn = mol fraction of the nth substance listed
Conditions: Liquid, Vibrating tube method

COc1cc2c(cc1O)CC1c3c(cc(O)c(OC)c3-2)CCN1C (stereo not given) [boldine] + CCO
mass density (342.88 K, 1000 kPa, x1 = 0.0267): 802.49 ± 0.7 kg/m3
mass density (342.88 K, 2000 kPa, x1 = 0.0267): 803.51 ± 0.7 kg/m3
mass density (342.88 K, 3000 kPa, x1 = 0.0267): 804.51 ± 0.7 kg/m3
mass density (342.88 K, 4000 kPa, x1 = 0.0267): 805.52 ± 0.7 kg/m3
mass density (342.88 K, 5000 kPa, x1 = 0.0267): 806.51 ± 0.7 kg/m3
mass density (342.88 K, 6000 kPa, x1 = 0.0267): 807.51 ± 0.7 kg/m3
mass density (342.88 K, 7000 kPa, x1 = 0.0267): 808.51 ± 0.71 kg/m3
mass density (342.88 K, 8000 kPa, x1 = 0.0267): 809.49 ± 0.71 kg/m3
mass density (342.88 K, 9000 kPa, x1 = 0.0267): 810.47 ± 0.71 kg/m3
mass density (342.88 K, 10000 kPa, x1 = 0.0267): 811.43 ± 0.71 kg/m3
mass density (342.88 K, 11000 kPa, x1 = 0.0267): 812.4 ± 0.71 kg/m3
mass density (342.88 K, 12000 kPa, x1 = 0.0267): 813.36 ± 0.72 kg/m3
mass density (342.88 K, 13000 kPa, x1 = 0.0267): 814.3 ± 0.72 kg/m3
mass density (342.88 K, 14000 kPa, x1 = 0.0267): 815.22 ± 0.72 kg/m3
mass density (342.88 K, 15000 kPa, x1 = 0.0267): 816.14 ± 0.72 kg/m3
mass density (342.88 K, 16000 kPa, x1 = 0.0267): 817.05 ± 0.73 kg/m3
mass density (342.88 K, 17000 kPa, x1 = 0.0267): 817.95 ± 0.73 kg/m3
mass density (342.88 K, 18000 kPa, x1 = 0.0267): 818.81 ± 0.73 kg/m3
mass density (342.88 K, 19000 kPa, x1 = 0.0267): 819.68 ± 0.73 kg/m3
mass density (342.88 K, 20000 kPa, x1 = 0.0267): 820.53 ± 0.74 kg/m3
mass density (342.9 K, 1000 kPa, x1 = 0.0196): 790.39 ± 0.84 kg/m3
mass density (342.9 K, 2000 kPa, x1 = 0.0196): 791.42 ± 0.84 kg/m3
mass density (342.9 K, 3000 kPa, x1 = 0.0196): 792.45 ± 0.84 kg/m3
mass density (342.9 K, 4000 kPa, x1 = 0.0196): 793.47 ± 0.84 kg/m3
mass density (342.9 K, 5000 kPa, x1 = 0.0196): 794.49 ± 0.84 kg/m3
mass density (342.9 K, 6000 kPa, x1 = 0.0196): 795.52 ± 0.84 kg/m3
mass density (342.9 K, 7000 kPa, x1 = 0.0196): 796.52 ± 0.84 kg/m3
mass density (342.9 K, 8000 kPa, x1 = 0.0196): 797.53 ± 0.84 kg/m3
mass density (342.9 K, 9000 kPa, x1 = 0.0196): 798.53 ± 0.84 kg/m3
mass density (342.9 K, 10000 kPa, x1 = 0.0196): 799.52 ± 0.84 kg/m3
mass density (342.9 K, 11000 kPa, x1 = 0.0196): 800.49 ± 0.84 kg/m3
mass density (342.9 K, 12000 kPa, x1 = 0.0196): 801.46 ± 0.85 kg/m3
mass density (342.9 K, 13000 kPa, x1 = 0.0196): 802.42 ± 0.85 kg/m3
mass density (342.9 K, 14000 kPa, x1 = 0.0196): 803.37 ± 0.85 kg/m3
mass density (342.9 K, 15000 kPa, x1 = 0.0196): 804.3 ± 0.85 kg/m3
mass density (342.9 K, 16000 kPa, x1 = 0.0196): 805.22 ± 0.85 kg/m3
mass density (342.9 K, 17000 kPa, x1 = 0.0196): 806.13 ± 0.86 kg/m3
mass density (342.9 K, 18000 kPa, x1 = 0.0196): 807.03 ± 0.86 kg/m3
mass density (342.9 K, 19000 kPa, x1 = 0.0196): 807.91 ± 0.86 kg/m3
mass density (342.9 K, 20000 kPa, x1 = 0.0196): 808.78 ± 0.86 kg/m3
mass density (342.92 K, 1000 kPa, x1 = 0.0012): 748.44 ± 0.88 kg/m3
mass density (342.92 K, 1000 kPa, x1 = 0.0074): 761.5 ± 0.89 kg/m3
mass density (342.92 K, 2000 kPa, x1 = 0.0012): 749.56 ± 0.87 kg/m3
mass density (342.92 K, 2000 kPa, x1 = 0.0074): 762.58 ± 0.89 kg/m3
mass density (342.92 K, 3000 kPa, x1 = 0.0012): 750.65 ± 0.87 kg/m3
mass density (342.92 K, 3000 kPa, x1 = 0.0074): 763.66 ± 0.89 kg/m3
mass density (342.92 K, 4000 kPa, x1 = 0.0012): 751.76 ± 0.87 kg/m3
mass density (342.92 K, 4000 kPa, x1 = 0.0074): 764.73 ± 0.89 kg/m3
mass density (342.92 K, 5000 kPa, x1 = 0.0012): 752.85 ± 0.87 kg/m3
mass density (342.92 K, 5000 kPa, x1 = 0.0074): 765.81 ± 0.89 kg/m3
mass density (342.92 K, 6000 kPa, x1 = 0.0012): 753.94 ± 0.88 kg/m3
mass density (342.92 K, 6000 kPa, x1 = 0.0074): 766.87 ± 0.89 kg/m3
mass density (342.92 K, 7000 kPa, x1 = 0.0012): 755.02 ± 0.88 kg/m3
mass density (342.92 K, 7000 kPa, x1 = 0.0074): 767.93 ± 0.89 kg/m3
mass density (342.92 K, 8000 kPa, x1 = 0.0012): 756.1 ± 0.88 kg/m3
mass density (342.92 K, 8000 kPa, x1 = 0.0074): 768.98 ± 0.9 kg/m3
mass density (342.92 K, 9000 kPa, x1 = 0.0012): 757.16 ± 0.88 kg/m3
mass density (342.92 K, 9000 kPa, x1 = 0.0074): 770.04 ± 0.9 kg/m3
mass density (342.92 K, 10000 kPa, x1 = 0.0012): 758.21 ± 0.88 kg/m3
mass density (342.92 K, 10000 kPa, x1 = 0.0074): 771.07 ± 0.9 kg/m3
mass density (342.92 K, 11000 kPa, x1 = 0.0012): 759.27 ± 0.89 kg/m3
mass density (342.92 K, 11000 kPa, x1 = 0.0074): 772.09 ± 0.9 kg/m3
mass density (342.92 K, 12000 kPa, x1 = 0.0012): 760.3 ± 0.89 kg/m3
mass density (342.92 K, 12000 kPa, x1 = 0.0074): 773.12 ± 0.9 kg/m3
mass density (342.92 K, 13000 kPa, x1 = 0.0012): 761.33 ± 0.89 kg/m3
mass density (342.92 K, 13000 kPa, x1 = 0.0074): 774.1 ± 0.91 kg/m3
mass density (342.92 K, 14000 kPa, x1 = 0.0012): 762.33 ± 0.89 kg/m3
mass density (342.92 K, 14000 kPa, x1 = 0.0074): 775.1 ± 0.91 kg/m3
mass density (342.92 K, 15000 kPa, x1 = 0.0012): 763.33 ± 0.89 kg/m3
mass density (342.92 K, 15000 kPa, x1 = 0.0074): 776.07 ± 0.91 kg/m3
mass density (342.92 K, 16000 kPa, x1 = 0.0012): 764.31 ± 0.9 kg/m3
mass density (342.92 K, 16000 kPa, x1 = 0.0074): 777.04 ± 0.91 kg/m3
mass density (342.92 K, 17000 kPa, x1 = 0.0012): 765.26 ± 0.9 kg/m3
mass density (342.92 K, 17000 kPa, x1 = 0.0074): 777.98 ± 0.92 kg/m3
mass density (342.92 K, 18000 kPa, x1 = 0.0012): 766.22 ± 0.9 kg/m3
